Laboratory results published in patent US20140303078A1, “MODULATION OF PANCREATIC BETA CELL PROLIFERATION” (President and Fellows of Harvard College, priority 2011, published 2014).
Like-named read-outs stand apart in the source and are kept apart here. Ends that are not written are not given here.

Columns and labels:
pancreatic beta cells [1] = assay: S961 treatment of mice, beta cell replication (Ki67/insulin immunostaining of pancreas); assay type: in vivo; settings: 0.125 to 1 μMol/Kg/week, vs vehicle
Description: The white arrows point to replicating beta cells. FIG. 1C is a bar graph showing Ki67+/insulin+% after treatment for 7 days with increasing doses (from 0.125 μMol/Kg/week to 1 μMol/Kg/week) of S961. […] The control in these experiments is vehicle without S961. To count the Ki67+/insulin+ percentage and the beta cell area/pancreas area, the whole pancreas was cryosectioned and immunostained, and the standard graph analysis tools such as Metamorph and Photoshop were used for the quantification.
As described herein, administration of a low dose of insulin receptor antagonist S961 to a mammal produces an increase in beta cell replication (FIG. 1). Following injection of S961, gene expression in liver, muscle, and fat was analyzed because these tissues are involved in carbohydrate storage and metabolism. Of particular interest as a result of this analysis was mouse gene EG624219.

TD26 (EG624219) mRNA = assay: TD26 mRNA expression in tissues of mice treated with S961 for 7 days; assay type: in vivo; settings: liver and fat
Description: Genes close to the diagonal line show similar expression values in treated and untreated liver. […] TD26 expression increases in the liver and fat upon S961 treatment. […] The presumptive signal peptide is included at the N-terminus. […] Hepa1-6 cells have been transfected with a plasmid carrying the gene for TD26 fused to a Myc-tag. The cells were stained with myc antibody.

[2] = Blood glucose levels after administration of S961; assay type: in vivo
Description: As used herein, low doses of S961 will typically be less than 1 μMol/Kg/week, preferably from 0.125 μMol/Kg/week to 0.5 μMol/Kg/week. However it will be understood that increased doses may be useful as well, particularly if utilized in conjunction with an anti-hyperglycemic agent.

pancreatic beta cells [3] = assay: S661 once daily in normal mice, beta cell replication by flow cytometry; assay type: in vivo, C57Bl/6 mice; settings: S661 1 mg/kg s.c. once daily, 4 days
Protocol: FIG. 13 is a bar graph showing beta cell replication after repeated dosing of S661 in normal mice. Increased beta cell replication with S661 treatment is shown as a percentage of replication. Replication was analyzed by flow cytometry. The control in these experiments is a vehicle without S661. (*** p<0.001; Student's T-Test)
In another study, S661 was administered subcutaneously in vehicle to C57Bl/6 mice as once daily injections of 1 mg/kg bodyweight for a period of 4 days. In parallel BrdU was administered once daily at a dose of 100 mg/kg for the same period. At the fifth day the pancreas was removed and the replication of beta cell was measured by flow cytometry.

[4] = obese rats, previous reports; cited from earlier work
pancreatic beta cells [5] = assay: S661 repeated dosing in normal mice, BrdU incorporation by immunohistochemistry; assay type: in vivo, C57Bl/6 mice; settings: 4 days
Protocol: FIG. 12 is a bar graph showing beta cell replication after repeated dosing of S661 in the pancreas of normal mice. Increased replication is shown as a fold increase compared to vehicle rate. Replication was analyzed by immunohistochemistry. The control in these experiments is a vehicle without S661.
In a study, S661 was administered subcutaneously in vehicle to C57Bl/6 mice 3 times daily at the following doses 1 mg/kg; 0.5 mg/kg; 0.25 mg/kg or 0.125 mg/kg bodyweight for a period of 4 days. In parallel BrdU was administered once daily at a dose of 100 mg/kg for the same period. At the fifth day the pancreas was removed and fixed in PFA. Paraffin embedded sections were stained for insulin, DAPI and BrdU. The incorporation of BrdU in replicating beta cells was analyzed using an automated script on images generated on a Zeiss Axioimager Z2.

pancreatic beta cells [6] = assay: S661 repeated dosing in diet-induced obesity (DIO) mice, BrdU immunohistochemistry; assay type: in vivo, C57Bl/6 mice (DIO); settings: S661 3 times 1 mg/kg or 0.125 mg/kg s.c., 4 days
Protocol: Increased beta cell replication with S661 treatment is shown as percent replication; there was no effect on non-beta cell replication. […] Immunohistochemistry was performed to analyze replication and islet area. (* p<0.05; ** p<0.01; Student's T-Test)
C57Bl/6 mice were fed a high fat diet for 17 weeks. S661 was administered subcutaneously in vehicle to DIO mice at doses of 3 times 1 mg/kg or 0.125 mg/kg bodyweight for a period of 4 days. In parallel BrdU was administered once daily at a dose of 100 mg/kg for the same period. At the fifth day the pancreas was removed and fixed in PFA. Paraffin embedded sections were stained for insulin, DAPI and BrdU. The incorporation of BrdU in replicating cells was analyzed using an automated script on images generated on a Zeiss Axioimager Z2.

Substance	beta cell replication (Ki67+/insulin+) (pancreatic beta cells [1]; treatment for 7 to 10 days)	beta cell area/pancreas area (pancreatic beta cells [1]; treatment for 7 days)	relative expression of TD26 mRNA (TD26 (EG624219) mRNA)	blood glucose levels ([2]; increasing doses of S961)	blood glucose levels ([2]; low doses of S961)	increase in the percentage of beta cell replication as compared to vehicle (pancreatic beta cells [3]) [fold]	blood glucose levels [4]	increase in β-cell replication in comparison to vehicle (pancreatic beta cells [5]; S661 0.125 mg/kg s.c. 3 times daily) [fold]	increase in β-cell replication in comparison to vehicle (pancreatic beta cells [5]; S661 1 mg/kg s.c. 3 times daily) [fold]	beta cell replication (pancreatic beta cells [6])	islet area relative to total pancreas area (pancreatic beta cells [6])	non-beta cell replication (pancreatic beta cells [6])
S961: 43 amino acid peptide insulin receptor antagonist, SEQ ID NO: 16 (GSLDESFYDWFERQLGGGSGGSSLEEEWAQIQCEVWGRGCPSY), C-terminus is an acid (GSLDESFYDWFERQLGGGSGGSSLEEEWAQIQCEVWGRGCPSY-OH; cysteine pairing not given here)	induces beta cell replication	significant increase	increases	blood glucose levels increase	does not increase blood glucose levels							
S661: 43 amino acid peptide insulin receptor antagonist, SEQ ID NO: 16 (GSLDESFYDWFERQLGGGSGGSSLEEEWAQIQCEVWGRGCPSY), C-terminus is an amide (GSLDESFYDWFERQLGGGSGGSSLEEEWAQIQCEVWGRGCPSY-NH2; cysteine pairing not given here)						~5	marked increase in blood glucose levels	2	5	increased amount of beta cell replication	increased islet area relative to total pancreas area	does not increase non-beta cell replication
